Several values for one entry are separate records, joined by “and”; a condition that tells them apart may be missing. Equal values may be shown once. Read-outs that look alike come from different tables or passages of the source.
Tests used:
[1] = test system: human keratinocytes in culture (cell line CCD-1106 KERTr); assay: cell viability / cell growth of human keratinocytes in culture, KX01, calcipotriol and fixed-ratio combinations; type: cell-based; parameters: cell growth (cell viability): unit not given here
From the text: Typical data from studies of the effects of compound KX01 provided in combination with calcipotriol on growth of human keratinocytes in culture (cell line CCD-1106 KERTr) are shown in FIGS. 1 to 3 and Tables 1 to 6. FIG. 1 and Tables 1 and 2 show the degree of growth inhibition found in a typical study performed with KX01 and calcipotriol at a 1:5 ratio.

[2] = test system: human keratinocyte cell line; assay: combinatorial dose response surface study of cell viability (PSI), KX01 and calcipotriol; type: cell-based; details: model estimate
From the text: FIG. 6: Dose response surface of cell viability versus calcipotriol concentration versus KX01 concentration. Synergistic combinations of calcipotriol and KX01 are below the surface of additivity (indicating enhanced inhibition of growth), and antagonistic combinations are above the surface of additivity (indicative of reduced inhibition of growth). Individual dose response curves for KX01 and calcipotriol as determined above can be used to generate dose response surfaces representative of the additive effects of these compounds on keratinocyte growth. […] A PSI value of 1 corresponds to an additive effect. A PSI value of less than 1 indicates a synergistic effect, and a PSI value of greater than 1 indicates an antagonistic effect. Cell viability was measured in a number of experiments. In Experiment 1, the concentrations of calcipotriol were: 0, 3, 9, 27, 81, and 243 nM, and the concentrations of KX01 were: 0, 5, 10, 20, 40, 60, 80, and 160 nM. In Experiment 2, the concentrations of calcipotriol were: 0, 5, 10, 20, 40, 80, 160, 320, and 1280 nM, and the concentrations of KX01 were: 1, 3, 9, 27, and 81 nM. […] It is notable that unexpected synergy is observed across a range of concentrations and combinations. Tables 7, 8, and 9 show the results for determination of individual IC50 and maximum inhibitory concentration values for KX01 and calcipotriol, as well as the PSI value for the drug combination. […]

CCD-1106 KERTr cells = assay: FITC annexin V / PI apoptosis assay by flow cytometry, 24 hours; type: cell-based, human; details: for late apoptic cells: 24 hours
Procedure: In addition to growth inhibition, Inventors also investigated the effect of KX01 on apoptosis in keratinocytes. CCD-1106 KERTr cells (1×10^6) were seeded in 60 mm dishes and treated with test compounds at varying concentrations (e.g. KX01: 20 to 500 nM; calcipotriol 50 to 1000 nM) for 24 hours. Cell apoptosis was assessed by using a FITC annexin V apoptosis detection kit (BD Biosciences™) according to manufacturer's instruction. Briefly, cells were collected in 1× binding buffer and incubated with fluorescein isothiocyanate (FITC)-conjugated annexin V and propidium iodide (PI) for 15 minutes at room temperature in the dark, followed by flow cytometry analysis using a LSRFortessa™ flow cytometer (BD Biosciences™).

[3] = test system: CCD 1106 KERTr human keratinocyte cell line; assay: MTT cell proliferation assay, 72 hours, dark or blue light, keratinocytes; type: cell-based; details: for inhibition at 0.005 µM / inhibition at 0.02 µM / inhibition at 0.08 µM / inhibition at 0.32 µM / inhibition at 1.28 µM: Homo sapiens, read-out: growth inhibition relative to untreated control
Procedure: The effects of combined treatment with KX01, a vitamin D derivative, and/or blue/UV light exposure were characterized using a cell proliferation assay. Cell proliferation was assessed by using an MTT assay. Cells were seeded in 96-well plate (3,000-5,000 cells per well) and treated with test compounds at varying concentrations (e.g. KX01: 5 to 80 nM; calcipotriol 5 to 1,280 nM) for 72 hours, either in the dark or exposed to blue light irradiation (for 2, 4, or 6 hours). To each well, 10 μl of 3-(4,5-dimethylthiazol-2-yl)-2,5-diphenyltetrazolium bromide (MTT) (RPI Corporation™) solution (5 mg/ml in PBS) was added and incubated at 37° C. for 3 hours. Next, 100 μl of 20% SDS was added to each well. After overnight incubation at 37° C., the absorbance in each well was measured at 570 nm in a microplate reader (Molecular Devices™). The cell growth curve and GI50s were calculate using GraphPad Prism™ 5 software. Tables 13 and 14 show the results of cell growth inhibition studies (expressed as a percentage relative to control cell growth) for treatment with either KX01 or calcipotriol in combination with exposure to blue light. […] The percentage of growth inhibition relative to untreated control is shown. […] The percentage of growth inhibition relative to untreated control is shown. Tables 15 to 18 show the effects of combined treatment with KX01, calcipotriol, and exposure to blue light at 0 hours, 2 hours, 4 hours, and 6 hours of light exposure (respectively). Values are expressed as the percentage of growth inhibition relative to cells grown under control conditions (0 hours blue light, [KX01]=0, [calcipotriol]=0). […] Results are shown below in Tables 27 to Table 30, which show results from 0, 2, 4, and 6 hours of blue light exposure (respectively). Values are expressed as the percentage of growth inhibition relative to cells grown under control conditions (0 hours blue light, [KX01]=0, [calcipotriol]=0).

For `C=C1/C(=C\C=C2/CCC[C@]3(C)[C@@H]([C@H](C)/C=C/[C@@H](O)C4CC4)CC[C@@H]23)C[C@@H](O)C[C@@H]1O` [Calcipotriol, calcipotriol], the GI50 [1] was 310 nM and 339 nM, the GI50 ([1]; Homo sapiens, CCD-1106) was 265 nM and the viability at 0.003 µM ([1]; Homo sapiens, CCD-1106, concentration 3 nM) was 94%. The viability at 0.009 µM ([1]; Homo sapiens, CCD-1106, concentration 9 nM) was 89.9%, the viability at 0.027 µM ([1]; Homo sapiens, CCD-1106, concentration 27 nM) was 70.5% and the viability at 0.081 µM ([1]; Homo sapiens, CCD-1106, concentration 81 nM) was 49.4%. It also gave a viability at 0.243 µM ([1]; Homo sapiens, CCD-1106, concentration 243 nM) of 47.3%, a viability at 0.729 µM ([1]; Homo sapiens, CCD-1106, concentration 729 nM) of 47% and a viability at 2.187 µM ([1]; Homo sapiens, CCD-1106, concentration 2187 nM) of 44.8%. For the same compound, the viability at 6.561 µM ([1]; Homo sapiens, CCD-1106, concentration 6561 nM) was 19.2%, the “cell growth (cell viability)” value ([1]; concentration 3 nM, 0.003 µM) was 95.3 and 96.1 and the “cell growth (cell viability)” value ([1]; concentration 9 nM, 0.009 µM) was 88.8 and 89.7. For the same compound, the “cell growth (cell viability)” value ([1]; concentration 27 nM, 0.027 µM) was 72.5 and 70.1, the “cell growth (cell viability)” value ([1]; concentration 81 nM, 0.081 µM) was 53.2 and 52.8 and the “cell growth (cell viability)” value ([1]; concentration 243 nM, 0.243 µM) was 47.7 and 51.0. The “cell growth (cell viability)” value ([1]; concentration 729 nM, 0.729 µM) was 47.1 and 48.7, the “cell growth (cell viability)” value ([1]; concentration 2187 nM, 2.187 µM) was 46.7 and 48.3 and the “cell growth (cell viability)” value ([1]; concentration 6561 nM, 6.561 µM) was 25.2 and 26.5. The IC50 ([2]; Homo sapiens, Keratinocyte) was 112 nM, the IC50 [2] was 59.3 nM and the “Max Inhibition” value [2] was 0.474 and 0.36 and 0.439. For the same compound, the “effect on apoptosis compared with control cells” value (CCD-1106 KERTr cells; 200 nm calcipotriol) was “not distinguishable from that of control cells receiving no drug treatment”, the late apoptic cells (CCD-1106 KERTr cells; calcipotriol 50 nM) was 2.41% and the late apoptic cells (CCD-1106 KERTr cells; calcipotriol 200 nM) was 2.06%. For the same compound, the late apoptic cells (CCD-1106 KERTr cells; calcipotriol 500 nM) was 4.13%, the late apoptic cells (CCD-1106 KERTr cells; calcipotriol 1,000 nM) was 4.19% and the inhibition at 0.005 µM ([3]; CCD-1106, 0 h, calcipotriol 5 nM, blue light 0 h) was 9%. For the same compound, the inhibition at 0.02 µM ([3]; CCD-1106, 0 h, calcipotriol 20 nM, blue light 0 h) was 24%, the inhibition at 0.08 µM ([3]; CCD-1106, 0 h, calcipotriol 80 nM, blue light 0 h) was 45% and the inhibition at 0.32 µM ([3]; CCD-1106, 0 h, calcipotriol 320 nM, blue light 0 h) was 48%. For the same compound, the inhibition at 1.28 µM ([3]; CCD-1106, 0 h, calcipotriol 1,280 nM, blue light 0 h) was 43%, the inhibition at 0.005 µM ([3]; CCD-1106, 2 h, calcipotriol 5 nM, blue light 2 h) was 32% and the inhibition at 0.02 µM ([3]; CCD-1106, 2 h, calcipotriol 20 nM, blue light 2 h) was 39%. The inhibition at 0.08 µM ([3]; CCD-1106, 2 h, calcipotriol 80 nM, blue light 2 h) was 55%, the inhibition at 0.32 µM ([3]; CCD-1106, 2 h, calcipotriol 320 nM, blue light 2 h) was 66% and the inhibition at 1.28 µM ([3]; CCD-1106, 2 h, calcipotriol 1,280 nM, blue light 2 h) was 62%. The inhibition at 0.005 µM ([3]; CCD-1106, 4 h, calcipotriol 5 nM, blue light 4 h) was 53%, the inhibition at 0.02 µM ([3]; CCD-1106, 4 h, calcipotriol 20 nM, blue light 4 h) was 58% and the inhibition at 0.08 µM ([3]; CCD-1106, 4 h, calcipotriol 80 nM, blue light 4 h) was 70%. For the same compound, the inhibition at 0.32 µM ([3]; CCD-1106, 4 h, calcipotriol 320 nM, blue light 4 h) was 71%, the inhibition at 1.28 µM ([3]; CCD-1106, 4 h, calcipotriol 1,280 nM, blue light 4 h) was 69% and the inhibition at 0.005 µM ([3]; CCD-1106, 6 h, calcipotriol 5 nM, blue light 6 h) was 56%. For the same compound, the inhibition at 0.02 µM ([3]; CCD-1106, 6 h, calcipotriol 20 nM, blue light 6 h) was 59%, the inhibition at 0.08 µM ([3]; CCD-1106, 6 h, calcipotriol 80 nM, blue light 6 h) was 71% and the inhibition at 0.32 µM ([3]; CCD-1106, 6 h, calcipotriol 320 nM, blue light 6 h) was 72%. The inhibition at 1.28 µM ([3]; CCD-1106, 6 h, calcipotriol 1,280 nM, blue light 6 h) was 66%, the “growth inhibition relative to untreated control” value ([3]; calcipotriol 5 nM, blue light 0 h) was 6% and the “growth inhibition relative to untreated control” value ([3]; calcipotriol 5 nM, blue light 2 h) was 33%. The “growth inhibition relative to untreated control” value ([3]; calcipotriol 5 nM, blue light 4 h) was 47%, the “growth inhibition relative to untreated control” value ([3]; calcipotriol 5 nM, blue light 6 h) was 51% and the “growth inhibition relative to untreated control” value ([3]; calcipotriol 20 nM, blue light 0 h) was 17%. For the same compound, the “growth inhibition relative to untreated control” value ([3]; calcipotriol 20 nM, blue light 4 h) was 52%, the “growth inhibition relative to untreated control” value ([3]; calcipotriol 80 nM, blue light 0 h) was 35% and the “growth inhibition relative to untreated control” value ([3]; calcipotriol 80 nM, blue light 4 h) was 64%. The “growth inhibition relative to untreated control” value ([3]; calcipotriol 80 nM, blue light 6 h) was 67%, the “growth inhibition relative to untreated control” value ([3]; calcipotriol 320 nM, blue light 2 h) was 60% and the “growth inhibition relative to untreated control” value ([3]; calcipotriol 320 nM, blue light 4 h) was 67%. For the same compound, the “growth inhibition relative to untreated control” value ([3]; calcipotriol 1,280 nM, blue light 0 h) was 37%, the “growth inhibition relative to untreated control” value ([3]; calcipotriol 1,280 nM, blue light 4 h) was 63% and the “growth inhibition relative to untreated control” value ([3]; calcipotriol 1,280 nM, blue light 6 h) was 67%. The “effect of blue light exposure with the drug on cell growth inhibition” value ([3]; for example 6 hours of blue light with 10 nm KX01) was “Synergistic effects”.

— US11752156B2, “Compositions and methods for treating hyperproliferative skin disorders” (Athenex HK Innovative Limited, priority 2018, dated 2023)
